According to US20230092389A1, “UNIT DOSES, AEROSOLS, KITS, AND METHODS FOR TREATING HEART CONDITIONS BY PULMONARY ADMINISTRATION” (InCarda Therapeutics, Inc., priority 2017, published 2023):
Where two headings read alike, the source gives them in different places.

Assays:
[1] = in vivo
Description: 3 cohorts of subjects, in total 34 healthy adult volunteers, were recruited for Part A study.
Part B was an open label non-randomized crossover in a cohort of 6 evaluable healthy adult volunteers.

[2] = beagle, dog, in vivo
Description: After induction of AF, animals were first given vehicle (0.9% NaCl, volume-matched) via IT installation.

[3] = test system: healthy volunteers; experiment: Phase 1 (FLE-001) pulmonary safety: spirometry, SpO2, auscultation, chest x-ray; type: in vivo, human
Description: Pulmonary safety was assessed by performing lung spirometry tests and measuring peripheral oxygen saturation (SpO2%) prior to dosing and at various times after completion of the inhalation. Lung spirometry tests evaluated all lung function parameters, including forced vital capacity (FVC), forced expiratory volume in 1 second (FEV1), peak expiratory flow (PEF), and forced expiratory flow at 25% and 75% intervals (FEF25-75). Auscultation and respiration rate were also measured prior to dosing and at various times after inhalation. Chest x-rays were performed on subjects before and after flecainide inhalation.

[4] = Cohort 1, 20 mg eTLD, 3 hours Post-dose
[5] = Cohort 1, 20 mg eTLD, 12 hours Pre-dose
[6] = Cohort 1, 20 mg eTLD, 24 hours Post-dose
[7] = Cohort 2, 40 mg eTLD, 3 hours Post-dose
[8] = Cohort 2, 40 mg eTLD, 12 hours Pre-dose
[9] = Cohort 2, 40 mg eTLD, 24 hours Post-dose
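Throughout, for Tmax (min after EOI): measured in healthy adult volunteers.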
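Throughout, for concentration-time profile curves, IV normalized to 30 mg vs inhaled 30 mg eTLD: measured in healthy adult volunteers.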
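Throughout, for dose dependence of Cmax and AUCLast: measured in healthy adult volunteers.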
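Throughout, for dose dependence of distribution phase and elimination half-life: measured in healthy adult volunteers.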
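Throughout, for dose proportionality of venous plasma concentrations: measured in healthy adult volunteers.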
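Throughout, for plasma concentration in subjects with near-equal ΔQRS (12.0 to 16 msec): measured in healthy adult volunteers.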
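Throughout, for venous plasma concentration-time curves, inhaled vs IV: measured in healthy adult volunteers.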

dose dependence of Cmax and AUCLast ([1]; human): dose-dependent
dose dependence of distribution phase and elimination half-life ([1]; human): independent of the doses
plasma concentration in subjects with near-equal ΔQRS (12.0 to 16 msec) ([1]; human): 85 ± 40.3 ng/mL
Tmax (min after EOI) ([1]; human, inhaled or intranasal, 30 mg): 0.5 (0, 1) min
plasma concentration in subjects with near-equal ΔQRS (12.0 to 16 msec) ([1]; human, iv): 222 ± 23 ng/mL
Tmax (min after EOI) ([1]; human, iv, 2 mg/kg): 1 (0, 60) min
dose proportionality of venous plasma concentrations [1]: near dose proportionality
venous plasma concentration-time curves, inhaled vs IV ([1]; 2 mg/kg): similar
concentration-time profile curves, IV normalized to 30 mg vs inhaled 30 mg eTLD ([1]; iv): near-identical
Plasma Concentration LV at time of conversion, Mean ± SEM [2]: 1139 ± 380 ng/mL
Plasma Concentration Venous at time of conversion, Mean ± SEM [2]: 611 ± 213 ng/mL
plasma concentrations transiently higher in LV than in PA (summary) [2]: ~2.5 fold
plasma levels higher in LV than in systemic venous circulation [2]: ~2 fold
plasma concentrations transiently higher in PA than in LV (summary) ([2]; iv): ~3.5 fold
time after administration when LV and PA concentrations were nearly equal ([2]; iv): 4 to 10 min
SMILES: O=C(NCC1CCCCN1)c1cc(OCC(F)(F)F)ccc1OCC(F)(F)F (stereo not shown) [flecainide]
Oxygen Saturation (SpO2%), mean ([3]; Cohort 1, 20 mg eTLD, 15 min Postdose): 97%
Oxygen Saturation (SpO2%), mean ([3]; Cohort 1, 20 mg eTLD, 30 min Postdose): 97%
Oxygen Saturation (SpO2%), mean ([3]; Cohort 1, 20 mg eTLD, 45 min Postdose): 97%
Oxygen Saturation (SpO2%), mean ([3]; Cohort 1, 20 mg eTLD, 60 min Postdose): 97%
Oxygen Saturation (SpO2%), mean ([3]; Cohort 1, 20 mg eTLD, 75 min Postdose): 98%
Oxygen Saturation (SpO2%), mean ([3]; Cohort 1, 20 mg eTLD, 90 min Postdose): 98%
Oxygen Saturation (SpO2%), mean ([3]; Cohort 1, 20 mg eTLD, 105 min Postdose): 97%
Oxygen Saturation (SpO2%), mean ([3]; Cohort 1, 20 mg eTLD, 120 min Postdose): 98%
FEF25-75, mean [3, 4]: 5.48 L/s
FEV1, mean [3, 4]: 5.27 L
FVC, mean [3, 4]: 6.42 L
PEF, mean [3, 4]: 10.87 L/s
FEF25-75, mean [3, 5]: 5.38 L/s
FEV1, mean [3, 5]: 5.26 L
FVC, mean [3, 5]: 6.02 L
PEF, mean [3, 5]: 11.30 L/s
FEF25-75, mean [3, 6]: 5.40 L/s
FEV1, mean [3, 6]: 5.18 L
FVC, mean [3, 6]: 6.36 L
PEF, mean [3, 6]: 11.09 L/s
Oxygen Saturation (SpO2%), mean ([3]; Cohort 1, 20 mg eTLD, Predose): 98%
Oxygen Saturation (SpO2%), mean ([3]; Cohort 2, 40 mg eTLD, 15 min Postdose): 96%
Oxygen Saturation (SpO2%), mean ([3]; Cohort 2, 40 mg eTLD, 30 min Postdose): 97%
Oxygen Saturation (SpO2%), mean ([3]; Cohort 2, 40 mg eTLD, 45 min Postdose): 96%
Oxygen Saturation (SpO2%), mean ([3]; Cohort 2, 40 mg eTLD, 60 min Postdose): 96%
Oxygen Saturation (SpO2%), mean ([3]; Cohort 2, 40 mg eTLD, 75 min Postdose): 97%
Oxygen Saturation (SpO2%), mean ([3]; Cohort 2, 40 mg eTLD, 90 min Postdose): 97%
Oxygen Saturation (SpO2%), mean ([3]; Cohort 2, 40 mg eTLD, 105 min Postdose): 97%
Oxygen Saturation (SpO2%), mean ([3]; Cohort 2, 40 mg eTLD, 120 min Postdose): 97%
FEF25-75, mean [3, 7]: 4.34 L/s
FEV1, mean [3, 7]: 4.96 L
FVC, mean [3, 7]: 6.19 L
PEF, mean [3, 7]: 10.66 L/s
FEF25-75, mean [3, 8]: 5.00 L/s
FEV1, mean [3, 8]: 5.04 L
FVC, mean [3, 8]: 6.18 L
PEF, mean [3, 8]: 10.83 L/s
FEF25-75, mean [3, 9]: 4.80 L/s
FEV1, mean [3, 9]: 5.08 L
FVC, mean [3, 9]: 6.39 L
PEF, mean [3, 9]: 11.14 L/s
Oxygen Saturation (SpO2%), mean ([3]; Cohort 2, 40 mg eTLD, Predose): 97%
respiratory rate ([3]; Cohorts 1, 2, 3, 5): minimal or no changes
standard lung spirometry measurements and peripheral O2 saturation ([3]; Cohorts 1, 2, 3, 5): normal before and after
SpO2 pre-dose and post-dose values ([3]; Cohorts 1 and 2): 97-98%
lung function parameters (FVC, FEV1, PEF, FEF25-75) pre-dose and post-dose ([3]; Cohorts 1 and 2): within the normal range for the population studied
Auscultation ([3]; inhaled 20, 30, 40 mg eTLD): normal
Chest x-rays ([3]; inhaled 20, 30, 40 mg eTLD): normal and showed no changes
respiration rate ([3]; inhaled 20, 30, 40 mg eTLD): No changes
